{"source": "patent US8703796B2", "about": "“3H-imidazo [4, 5-B] pyridine-6-carboxamides as anti-inflammatory agents” (Boehringer Ingelheim International GmbH, priority 2008, dated 2014)"}
{"molecular_target": "T1, recombinant human mPGES-1 (Homo sapiens, UniProt O14684)", "T1 construct": "made in house; host or cells: Rosetta E. coli (microsomal/membrane fraction)", "T1 sequence (O14684 1-152)": "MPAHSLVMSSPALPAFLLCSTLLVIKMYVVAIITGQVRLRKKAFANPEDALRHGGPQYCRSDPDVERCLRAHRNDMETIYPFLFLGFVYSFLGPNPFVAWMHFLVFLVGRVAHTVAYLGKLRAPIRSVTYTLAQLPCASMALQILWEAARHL", "experiment": "mPGES-1 inhibition, HTRF detection of PGE2", "assay_type": "biochemical", "method_in_brief": "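First, inhibitor is incubated with microsomal enzyme from Rosetta E. coli in KPi pH 7.4 containing 2.5 mM GSH for 25 minutes at room temperature. Next, PGH2 is added and stopped after one minute with FeCl2 stop solution. Finally, diluted samples undergo HTRF PGE2 quantification.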", "units": {"inhibition at 10 µM": "%", "inhibition at 1 µM": "%"}}
{"smiles": "COCCOc1nc2[nH]c(Nc3c(Cl)cncc3Cl)nc2cc1C(=O)Nc1cc(C(F)(F)F)ccn1", "note": "[Example 808, 2-(3,5-Dichloro-pyridin-4-ylamino)-5-(2-methoxy-ethoxy)-N-(4-trifluoromethyl-pyridin-2-yl)-3H-imidazo[4,5-b]pyridine-6-carboxamide]", "inhibition at 10 µM": 100}
{"smiles": "CC(=O)N(C)CCOc1nc2[nH]c(Nc3c(Cl)cncc3Cl)nc2cc1C(=O)NCC(F)(F)C(F)(F)C(F)(F)C(F)(F)F", "note": "[Example 809, 2-(3,5-Dichloro-pyridin-4-ylamino)-5-(2-(acetyl-methyl-amino)-ethoxy)-N-(2,2,3,3,4,4,5,5,5-nonafluoro-pentyl)-3H-imidazo[4,5-b]pyridine-6-carboxamide]", "inhibition at 10 µM": 100}
{"smiles": "CC(=O)N(C)CCOc1nc2c(cc1C(=O)Nc1ccc(Br)cc1)nc(Nc1c(Cl)cncc1Cl)n2C", "note": "[Example 810, 2-(3,5-Dichloro-pyridin-4-ylamino)-5-(2-(acetyl-methyl-amino)-ethoxy)-N-(4-bromo-phenyl)-3-methyl-3H-imidazo[4,5-b]pyridine-6-carboxamide]", "inhibition at 10 µM": 96}
{"smiles": "CC(=O)N(C)CCOc1nc2c(cc1C(=O)NCC(F)(F)C(F)(F)C(F)(F)C(F)(F)F)nc(Nc1c(Cl)cncc1Cl)n2C", "note": "[Example 811, 2-(3,5-Dichloro-pyridin-4-ylamino)-5-(2-(acetyl-methyl-amino)-ethoxy)-N-(2,2,3,3,4,4,5,5,5-nonafluoro-pentyl)-3-methyl-3H-imidazo[4,5-b]pyridine-6-carboxamide]", "inhibition at 1 µM": 94}
{"smiles": "COCCOc1nc2c(cc1C(=O)Nc1ccc(Br)cc1)nc(Nc1c(Cl)cncc1Cl)n2C", "note": "[Example 812, 2-(3,5-Dichloro-pyridin-4-ylamino)-5-(2-methoxy-ethoxy)-N-(4-bromo-phenyl)-3-methyl-3H-imidazo[4,5-b]pyridine-6-carboxamide]", "inhibition at 10 µM": 97}
{"smiles": "Cn1c(Nc2c(Cl)cc(F)cc2Cl)nc2cc(C(=O)NCc3ncccc3C(F)(F)F)c(OCC(F)(F)F)nc21", "note": "[Example 813, 2-(2,6-Dichloro-4-fluoro-phenylamino)-5-(2,2,2-trifluoro-ethoxy)-N-((3-trifluoromethyl-pyridin-2-yl)-methyl)-3-methyl-3H-imidazo[4,5-b]pyridine-6-carboxamide]", "inhibition at 10 µM": 99}
{"smiles": "Cn1c(Nc2c(Cl)cc(F)cc2Cl)nc2cc(C(=O)N[C@H]3CC[C@H](C(F)(F)F)CC3)c(OCC(F)(F)F)nc21", "note": "[Example 814, 2-(2,6-Dichloro-4-fluoro-phenylamino)-5-(2,2,2-trifluoro-ethoxy)-N-(trans-4-trifluoromethyl-cyclohexyl)-3-methyl-3H-imidazo[4,5-b]pyridine-6-carboxamide]", "inhibition at 10 µM": 97}
{"smiles": "Cn1c(Nc2c(Cl)cc(F)cc2Cl)nc2cc(C(=O)Nc3cc(C(F)(F)F)ccn3)c(OCC(F)(F)F)nc21", "note": "[Example 815, 2-(2,6-Dichloro-4-fluoro-phenylamino)-5-(2,2,2-trifluoro-ethoxy)-N-(4-trifluoromethyl-pyridin-2-yl)-3-methyl-3H-imidazo[4,5-b]pyridine-6-carboxamide]", "inhibition at 10 µM": 100}
{"smiles": "Cn1c(Nc2c(Cl)cc(F)cc2Cl)nc2cc(C(=O)Nc3ccc(Br)cc3)c(OCC(F)(F)F)nc21", "note": "[Example 816, 2-(2,6-Dichloro-4-fluoro-phenylamino)-5-(2,2,2-trifluoro-ethoxy)-N-(4-bromo-phenyl)-3-methyl-3H-imidazo[4,5-b]pyridine-6-carboxamide]", "inhibition at 10 µM": 97}
{"smiles": "Cn1c(Nc2c(Cl)cc(F)cc2Cl)nc2cc(C(=O)Nc3cc(C(F)(F)F)ccn3)c(OCC(F)F)nc21", "note": "[Example 817, 2-(2,6-Dichloro-4-fluoro-phenylamino)-5-(2,2-difluoro-ethoxy)-N-(4-trifluoromethyl-pyridin-2-yl)-3-methyl-3H-imidazo[4,5-b]pyridine-6-carboxamide]", "inhibition at 10 µM": 96}
{"smiles": "Cn1c(Nc2c(Cl)cc(F)cc2Cl)nc2cc(C(=O)Nc3ccc(Br)cc3)c(OCC(F)F)nc21", "note": "[Example 818, 2-(2,6-Dichloro-4-fluoro-phenylamino)-5-(2,2-difluoro-ethoxy)-N-(4-bromo-phenyl)-3-methyl-3H-imidazo[4,5-b]pyridine-6-carboxamide]", "inhibition at 10 µM": 99}
